# Test results reported in patent US20180312539A1, “METHODS FOR PREPARING HIGH THROUGHPUT PEPTIDOMIMETICS, ORALLY BIOAVAILABLE DRUGS AND COMPOSITIONS CONTAINING SAME” (University of Southern California, priority 2011, published 2018).
# Key:
# [1] = design: species or system C57BL6 mice; conditions: mouse, in vivo, po, 10 mg/kg
# Procedure: The following peptides were synthesized for oral administration: […](FAM) (SEQ ID NO: 14), […](FAM)DK(Palmitoleic acid) (SEQ ID NO: 15), and […](FAM) (SEQ ID NO: 16), wherein FAM is a lysine derivative containing fluorescein. All peptides were cyclized from the side chain to lysine to the N-terminus as previously described. Anesthetized C57BL6 mice had peptide administered at a dose of 10 mg/kg by oral gavage. After administration, mice were removed from isoflurane. At various time points, blood samples were taken by orbital bleeding as previously described. Peaks were normalized to a 15 minute time point from mice that had peptide administered by IV injection.
# The following peptides were synthesized for oral administration: […](FAM) (SEQ ID NO: 14), […](FAM) (SEQ ID NO: 16), […](FAM)DK(biotin) (SEQ ID NO: 38), and […](FAM)DK(Palmitoleic acid) (SEQ ID NO: 15). All peptides were cyclized from the side chain to lysine to the N-terminus as previously described in Millward, S. W. et al. (2007) ACS Chem. Biol. 2:625. Anesthetized C57BL6 mice had peptide administered at a dose of 10 mgs/Kg by oral gavage. After administration, mice were removed from isoflurane. At various time points, blood samples were taken by orbital bleeding as previously described. Peaks were normalized to a 20 minute time point from mice that had peptide administered by IV injection. Area under the curve was analyzed by Graphpad 5.0.
# In addition to accessing intracellular targets in cell culture, deriving a simple modification that would facilitate oral bioavailability of peptidic ligands would be greatly beneficial for therapeutic development. Intestinal absorption of both fatty acids and biotin is nearly 100% efficient. Zempleni, J. and Mock, D. M. (1999) The American Journal of Clinical Nutrition 69:504. […] Applicants synthesized a protease resistant peptide with the sequence […]-mod (designated SUPR peptide) (SEQ ID NO: 50), where A is N-methyl alanine, the peptide is cyclized from lysine to the N-terminus, and K(mod) is lysine with a modified sidechain including either biotin or palmitoleic acid. Palmitoleic acid is a monounsaturated fatty acid chosen for its ability to bind human serum albumin, and its low melting point allowing for more favorable solubility of conjugated peptides as compared to […] fatty acid conjugates. This peptide was administered to mice at a dose of 10 mg/kg by oral gavage. At various time points, blood was taken from the mice by orbital bleeding. After processing, fluorescence was quantified and compared to the maximum signal obtained by IV injection of peptide at the same dose.
# Human microsome digests = format: in vitro ADME
# Procedure: Pooled, mixed gender human microsomes containing cytochrome P450's were obtained from Xenotech. 100 μL of microsomes were added to 500 of PBS buffer containing 250 nmoles of peptide with 1% DMSO. 50 μL aliquots were removed at various time points and worked up in the same manner as the human serum digests.
# Another vital area for the in vivo processing of drugs is the liver. All blood is eventually filtered through the liver, where various types of enzymes functionalize drugs for the purpose of excretion. […] These enzymes are largely involved in the oxidation of drugs, and can be found on the […]. Human liver microsomes are functional liver extract containing cytochrome P450s. Therefore half-life of modification of peptides by cytochrome P450s from exposure to human microsomes was examined. The results were similar to the human serum result in that both cyclization and N-methylation were necessary for significant enhancement of resistance to modification. […] This is interesting because the trait of protease resistance, not resistance to cytochrome P450 modification was a selection criteria.
# A similar experiment was performed analyzing protease resistance to cytochrome P450 degradation. Peptide was incubated with human liver microsomes at 37° C. All peptides were highly protease resistant. […]
# chymotrypsin [2] = biological target: T1, chymotrypsin (Bos taurus, UniProt P00766); experiment: Basic kinetic study with chymotrypsin (Km, Vmax); format: biochemical; conditions: relative to cycGIBP
# T1 construct: purchased Sigma
# Source text: Crystal structures of serine proteases such as chymotrypsin and proteinase K show a hydrogen bonding network from the protease to the backbone of their substrate at four amino acid positions. Applicants postulated that N-methylation would result in a steric clash between the substrate and protease, thereby inhibiting the ability of the protease to bind to the peptide. In enzyme kinetic terms, this would result in an enhancement of Km. Additionally, several experiments have shown that proteases such as chymotrypsin, will not cut all of their predicted digest sites equally. It has long been observed that secondary structure will have an effect on proteolysis of a protein. However, there are now several independent examples of peptides with, with no predicted secondary structure that have predicted protease digest sites that are not proteolyzed. Applicants suspect that there may be some local sequence context that is inhibitor for proteolysis. This sequence context may either make it harder for the protease to bind its substrate (Km), or it may make it more difficult for the protease to perform catalysis on the substrate (Vmax). To investigate the origin of these enhancements, Applicants conducted a basic kinetic study with chymotrypsin. Proteinase K digested GIBP too quickly for this type of analysis but could be utilized in other systems and with other peptides.
# Gαi1 = biological target: T2, Gαi1 (Homo sapiens, UniProt P63096); experiment: TNT pulldown specificity analysis with radiolabeled Gα subunits; format: binding; conditions: C-terminally biotinylated peptide on NeutrAvidin-agarose
# T2 construct: made in house; host or cells: TNT (coupled in vitro transcription/translation), radiolabeled
# Procedure: TNT pulldown experiments were carried out as previously described in Stoop and Craik (2003) Nat. Biotech 21:1063. […] Control NeutrAvidin-agarose was treated with DMSO alone. Binding reactions proceeded for 1 h at 4° C. followed by filtration and washing with 1× selection buffer. The matrix was analyzed by scintillation counting, and the percent bound was determined by the matrix counts divided by the total counts as determined by TCA precipitation. […] The peptide was immobilized on NeutrAvidin-agarose and used to pull down radiolabeled protein. […] This was true both for specificity within the Gα family as well as state specificity of Gαi1. In fact, there was a small enhancement of specificity for the target Gαi1 over a protein with nearly 85% sequence similarity, Gαi2. […] The ability to retain or enhance selectivity for a desired target is of tremendous importance for therapeutic and diagnostic development.
# chymotrypsin [3] = biological target: T1, chymotrypsin; experiment: Protease resistance experiment, chymotrypsin digest; format: in vitro ADME
# Procedure: Immobilized chymotrypsin and proteinase K purchased from Sigma.
# Protease resistance enhancement was then tested.
# Towards that end, three peptides were synthesized. […] The effects were dramatic and surprising.
# T2 sequence (P63096 whole entry): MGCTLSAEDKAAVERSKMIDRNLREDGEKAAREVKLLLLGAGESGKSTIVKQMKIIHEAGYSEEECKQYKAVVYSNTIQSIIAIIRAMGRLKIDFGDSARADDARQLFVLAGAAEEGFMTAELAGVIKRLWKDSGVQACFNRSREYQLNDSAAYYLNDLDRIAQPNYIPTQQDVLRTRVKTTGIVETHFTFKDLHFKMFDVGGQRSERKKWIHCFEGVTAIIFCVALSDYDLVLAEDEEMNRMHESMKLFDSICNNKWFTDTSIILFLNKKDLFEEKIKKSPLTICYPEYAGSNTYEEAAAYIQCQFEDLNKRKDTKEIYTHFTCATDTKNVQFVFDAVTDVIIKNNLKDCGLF
compound,measurement,setting,value
CSCC[C@@H]1NC(=O)CCCC(=O)NCCCC[C@@H](C(N)=O)NC(=O)[C@H](CO)NC(=O)[C@H](Cc2c[nH]c3ccccc23)NC(=O)[C@H](CCC(N)=O)NC(=O)[C@H](C)N(C)C(=O)[C@H](Cc2ccc(O)cc2)NC(=O)[C@H](CCC(=O)O)NC(=O)[C@H](Cc2ccc(O)cc2)NC(=O)[C@H](C)N(C)C(=O)[C@H](Cc2ccc(O)cc2)NC(=O)[C@H](Cc2ccccc2)NC1=O [cycSUPR],oral uptake efficiency,[1],did not show any detectable oral uptake
same,resistance to cytochrome P450 degradation,"Human microsome digests; human liver microsomes, 37° C (Experiment No. 4)",more preotease resistant than the Her-2 binding peptides
same,stability to human liver microsomes (cytochrome P450s),Human microsome digests; versus cycGIBP or linSUPR,nearly an order of magnitude increase in stability
same,Km and Vmax of chymotrypsin digestion,chymotrypsin [2],optimized for protease resistance relative to cycGIBP
same,specificity within the Gα family and state specificity of Gαi1,Gαi1,retained specificity of its parent molecule
same,fold more resistant to chymotrypsin,chymotrypsin [3]; compared to CycGIBP,~200 fold
same,digest sites found from chymotrypsin,chymotrypsin [3]; five theoretical digest sites,two
